From ChEMBL document CHEMBL1201862, “PubChem BioAssay data set” (2004) come the findings set out here.

Some test systems named below: OVCAR-8; UACC-62; SR; OVCAR-4; PC-3; MDA-MB-231; 786-0; NCI-H522; UACC-257; NCI-H226; HL-60; T47D; SK-MEL-5; NCI-H23; ACHN; OVCAR-3; CAKI-1; NCI/ADR-RES; IGROV-1; Malme-3M.
What all share (assay): NCI anticancer screen, dose series, 48 h

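Dose response: 5 concentrations. Exposure: 48 h. Format: 96-well plates. Endpoint: linear interpolation; highest concentration if not reached. At the GI50, growth is halved.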 Activity calls are given as the source filed them. No stated cut-off is given here; in the data, active = GI50 up to about 1.1 µM and inactive = higher.

With `O=c1c2cc(I)ccc2nc(SCc2nncs2)n1Cc1ccccc1`, the GI50 in the experiment on OVCAR-8 was 36.5 µM (inactive); with UACC-62, 13.6 µM (inactive); in the experiment on SR, 15.4 µM (inactive); with OVCAR-4, 12.6 µM (inactive); in the experiment with PC-3 it was 13.8 µM (inactive); in the experiment on MDA-MB-231, 16.8 µM (inactive). Also, the GI50 was 15 µM (inactive) with 786-0; 4.78 µM (inactive) in the experiment with NCI-H522; 10.5 µM (inactive) with UACC-257; 23.8 µM (inactive) in the experiment with NCI-H226; 22.1 µM (inactive) in the experiment with HL-60; 8.93 µM (inactive) in the experiment on T47D. Further, the GI50 in the experiment with SK-MEL-5 is 6.71 µM (inactive); with NCI-H23, 25.6 µM (inactive); in the experiment with ACHN, 9.33 µM (inactive); in the experiment with OVCAR-3, 12.3 µM (inactive); with CAKI-1, 2.15 µM (inactive); in the experiment with NCI/ADR-RES, > 100 µM (inactive). For the same compound, the GI50 with IGROV-1 is 3.89 µM (inactive).

Regarding `CC(C)=CCC[C@@H](C)C1=C(O)C(=O)C(C)=C(Nc2ccccc2Br)C1=O`, the GI50 in the experiment with OVCAR-8 is 7.57 µM (inactive); with UACC-62 it was 13.3 µM (inactive); in the experiment on SR, 9.66 µM (inactive); in the experiment with OVCAR-4, 6.52 µM (inactive); with PC-3, 8.51 µM (inactive); in the experiment on MDA-MB-231 it was 20.7 µM (inactive). The GI50 is 13.3 µM (inactive) in the experiment on 786-0; 14.9 µM (inactive) with UACC-257; 14.7 µM (inactive) with NCI-H226; 2.73 µM (inactive) in the experiment on HL-60; 13.8 µM (inactive) in the experiment on T47D; 9.4 µM (inactive) in the experiment with Malme-3M. Also, the GI50 was 11.5 µM (inactive) with SK-MEL-5; 9.71 µM (inactive) with NCI-H23; 15.6 µM (inactive) with ACHN; 4.13 µM (inactive) in the experiment with OVCAR-3; 18.6 µM (inactive) in the experiment on CAKI-1; 3.78 µM (inactive) in the experiment on NCI/ADR-RES. In addition, the GI50 with IGROV-1 was 8.69 µM (inactive).

As for `Cc1ccc(S(=O)(=O)OC2=C/C(=N\c3onc(C)c3C)c3ccccc3C2=O)cc1`, the GI50 in the experiment with OVCAR-8 was 18.3 µM (inactive); with UACC-62, 20.6 µM (inactive); in the experiment with SR it was 3.01 µM (inactive); in the experiment with OVCAR-4 it was 16.4 µM (inactive); in the experiment on PC-3 it was 20.6 µM (inactive); in the experiment on MDA-MB-231, 19.7 µM (inactive). Also, the GI50 with 786-0 is 37.1 µM (inactive); in the experiment on NCI-H522, 7.46 µM (inactive); in the experiment on UACC-257, 15.2 µM (inactive); with NCI-H226, 35.4 µM (inactive); in the experiment with HL-60 it was 6.43 µM (inactive); with T47D, 24.2 µM (inactive). Further, the GI50 in the experiment on Malme-3M is 17.9 µM (inactive); in the experiment with SK-MEL-5, 18.3 µM (inactive); in the experiment on NCI-H23 it was 22.6 µM (inactive); with ACHN, 26.3 µM (inactive); with OVCAR-3, 16.5 µM (inactive); in the experiment on CAKI-1 it was 20 µM (inactive). Further, the values for the GI50 in the experiment on NCI/ADR-RES and with IGROV-1 were 25.2 µM (inactive) and > 10 µM (inactive), respectively.

Regarding `C[C@]12CC[C@H]3[C@@H](CCC4=CC(=O)C=C[C@@]43O)[C@@H]1CCC2=O`, the GI50 with OVCAR-8 is 81.1 µM (inactive); in the experiment on UACC-62, 60.1 µM (inactive); in the experiment on SR it was 74.3 µM (inactive); in the experiment on PC-3, > 100 µM (inactive); in the experiment on MDA-MB-231, > 100 µM (inactive); with 786-0, > 100 µM (inactive). Besides, the GI50 was > 100 µM (inactive) in the experiment with UACC-257; 69.8 µM (inactive) in the experiment on NCI-H226; > 100 µM (inactive) in the experiment on T47D; 82 µM (inactive) in the experiment on SK-MEL-5; 51.5 µM (inactive) in the experiment on NCI-H23; > 100 µM (inactive) in the experiment with ACHN. For the same compound, the GI50 is > 100 µM (inactive) in the experiment on OVCAR-3, > 100 µM (inactive) with CAKI-1, 78.3 µM (inactive) in the experiment with NCI/ADR-RES and 94 µM (inactive) in the experiment on IGROV-1.

On to `NC(CC1=CS(=O)(=O)c2ccc(Cl)cc21)C(=O)O` (centres undefined), for which the GI50 in the experiment on OVCAR-8, with UACC-62, with SR, with OVCAR-4, with PC-3 and in the experiment with MDA-MB-231 was > 100 µM (inactive) each time. Moreover, the GI50 with 786-0 was > 100 µM (inactive); with NCI-H522, > 100 µM (inactive); in the experiment on UACC-257 it was 54.7 µM (inactive); with NCI-H226 it was > 100 µM (inactive); in the experiment with T47D, > 100 µM (inactive); with Malme-3M, 76.7 µM (inactive). Further, the GI50 in the experiment with SK-MEL-5, in the experiment on NCI-H23, with ACHN, in the experiment with OVCAR-3, in the experiment with CAKI-1 and in the experiment on NCI/ADR-RES was > 100 µM (inactive) in each case. In the experiment on IGROV-1, the GI50 is > 100 µM (inactive).

For the compound `COc1ccc(/C=C2\N=C(c3ccccc3)N(C3Nc4cc5c(cc4S3)NC(N3C(=O)/C(=C/c4ccc(OC)cc4)N=C3c3ccccc3)S5)C2=O)cc1` (centres undefined), the GI50 is 27.1 µM (inactive) in the experiment with OVCAR-8; 9.68 µM (inactive) in the experiment with SR; 38.3 µM (inactive) with OVCAR-4; 83.6 µM (inactive) in the experiment on PC-3; > 100 µM (inactive) in the experiment with MDA-MB-231; 28.1 µM (inactive) with 786-0. Moreover, the GI50 with NCI-H522 is 18.1 µM (inactive); in the experiment on UACC-257 it was > 100 µM (inactive); in the experiment with NCI-H226, 60.1 µM (inactive); with HL-60, 33.2 µM (inactive); in the experiment with T47D, 65.3 µM (inactive); with SK-MEL-5, 37.2 µM (inactive). In addition, the GI50 in the experiment with NCI-H23 was 42.9 µM (inactive); with ACHN, 90.4 µM (inactive); in the experiment with OVCAR-3 it was 43.6 µM (inactive); in the experiment with CAKI-1, > 100 µM (inactive); in the experiment with NCI/ADR-RES, 19.2 µM (inactive); in the experiment with IGROV-1, > 100 µM (inactive).

For the compound `Clc1nc(NC23CC4CC(CC(C4)C2)C3)nc(NC23CC4CC(CC(C4)C2)C3)n1`, the GI50 is 70.1 µM (inactive) with OVCAR-8; > 100 µM (inactive) in the experiment with UACC-62; 29 µM (inactive) with SR; 83 µM (inactive) in the experiment on OVCAR-4; 1.41 µM (inactive) in the experiment on PC-3; > 34.3 µM (inactive) in the experiment with MDA-MB-231. The GI50 was 52.5 µM (inactive) with 786-0; 50.7 µM (inactive) with UACC-257; 97.9 µM (inactive) in the experiment with NCI-H226; 19.9 µM (inactive) with HL-60; 10.5 µM (inactive) in the experiment on T47D; > 100 µM (inactive) in the experiment with Malme-3M. Also, the GI50 in the experiment with SK-MEL-5 is 47.3 µM (inactive); with NCI-H23, 38.5 µM (inactive); in the experiment with ACHN, > 34.8 µM (inactive); in the experiment with OVCAR-3 it was 50.8 µM (inactive); with CAKI-1, > 100 µM (inactive); with NCI/ADR-RES, 46 µM (inactive). Further, the GI50 in the experiment with IGROV-1 was > 100 µM (inactive).

Turning to `COc1cc2c(/C=C3/C(=O)Nc4cccc(Cl)c43)c(Cl)[nH]c2cc1C`, the GI50 in the experiment on OVCAR-8 was 2.54 µM (inactive); in the experiment on UACC-62, 1.95 µM (inactive); in the experiment on SR it was 1.41 µM (inactive); with OVCAR-4 it was 0.078 µM (active); in the experiment with PC-3, 2.68 µM (inactive); in the experiment on MDA-MB-231 it was 1.08 µM (active). Besides, the GI50 with 786-0 is 1.85 µM (inactive); with NCI-H522, 2.32 µM (inactive); with UACC-257 it was 2.26 µM (inactive); in the experiment on NCI-H226 it was 1.44 µM (inactive); in the experiment on HL-60, 1.82 µM (inactive); with T47D, 1.43 µM (inactive). Besides, the GI50 in the experiment on SK-MEL-5 is 3.5 µM (inactive); in the experiment with NCI-H23, 2.51 µM (inactive); in the experiment with ACHN, 2.67 µM (inactive); with OVCAR-3, 1.6 µM (inactive); in the experiment on CAKI-1 it was 1.86 µM (inactive); in the experiment with NCI/ADR-RES, 1.65 µM (inactive). For the same compound, the GI50 in the experiment with IGROV-1 is 1.59 µM (inactive).

As to `O=[N+]([O-])/C(Cl)=C(\NCCN/C(C(Cl)=C(Cl)Cl)=C(/Cl)[N+](=O)[O-])C(Cl)=C(Cl)Cl`, the GI50 in the experiment with OVCAR-8 was 40.3 µM (inactive); in the experiment with UACC-62, 31.2 µM (inactive); in the experiment on SR, 17.1 µM (inactive); in the experiment with PC-3, 43.6 µM (inactive); in the experiment with MDA-MB-231, 52.1 µM (inactive); in the experiment on 786-0, 31.6 µM (inactive). Further, the GI50 in the experiment on NCI-H226 is > 100 µM (inactive); in the experiment on HL-60, 25.6 µM (inactive); with T47D it was 51.2 µM (inactive); with Malme-3M, 46.5 µM (inactive); in the experiment on NCI-H23, 28.7 µM (inactive); in the experiment on ACHN, > 100 µM (inactive). Also, the GI50 with OVCAR-3 is 16.5 µM (inactive); in the experiment with CAKI-1, > 100 µM (inactive); in the experiment on NCI/ADR-RES, 89.7 µM (inactive); in the experiment on IGROV-1, 62.7 µM (inactive).

In the case of `C/C(=N\Nc1nc2ccccc2s1)c1cccc[n+]1[O-]`, the GI50 was 30.2 µM (inactive) with OVCAR-8; 50.1 µM (inactive) in the experiment on UACC-62; 23.9 µM (inactive) with SR; 86.3 µM (inactive) in the experiment on OVCAR-4; 33 µM (inactive) with PC-3; 49.9 µM (inactive) in the experiment with MDA-MB-231. The GI50 in the experiment with 786-0 is 47.1 µM (inactive); in the experiment with NCI-H522 it was 26.7 µM (inactive); in the experiment on UACC-257, 40.1 µM (inactive); in the experiment with NCI-H226, 55.2 µM (inactive); with T47D it was 30.8 µM (inactive); with Malme-3M it was 1.09 µM (active). Moreover, the GI50 is 32.8 µM (inactive) in the experiment with SK-MEL-5; 47.3 µM (inactive) in the experiment on NCI-H23; 37.1 µM (inactive) with ACHN; 24.8 µM (inactive) in the experiment on OVCAR-3; 32.4 µM (inactive) with CAKI-1; 29.7 µM (inactive) in the experiment with NCI/ADR-RES. The GI50 with IGROV-1 is 21.7 µM (inactive).
